Data: patent US7414068B2, “Benzopyran derivatives substituted with secondary amines including tetrazole, method for the preparation thereof and pharmaceutical compositions containing them” (Dongbu Hannong Chemical Co., Ltd., priority 2002, dated 2008)

Assays:
isolated rat aorta = assay: Vasodilating effect on blood vessel excised from rats (methoxamine-constricted aorta); details: isolated rat aorta constricted with methoxamine (3 μM); read-out: Concentration for inhibition of constriction induced by methoxamine in rat arota (IC50)
Text: Rats (350˜450 g, obtained from the Experimental Animal Team of the Korea Research Institute of Chemical Technology) were knocked to be unconscious by hitting the occipital region, sacrificed by cervical dislocation, and underwent thoracotomy. After being quickly removed, the thoracic aorta was deprived of the adipose tissue and cut into aortic rings of 3 mm width. The aorta was lightly rubbed with cotton club soaked in a modified Krebs Henseleit buffer (Physiological salt solution) to remove the inner epithelial layer therefrom. While being hung in an organ bath containing a physiological buffer, the vascular smooth muscle was allowed to equilibrate under a resting tension of 2 g and then, stand for 1 hour at 37° C. for stabilization, supplying a carbogen consisting of 95% O2˜5% CO2.
Thereafter, the vascular smooth muscle was constricted with 10^−5M phenylephrine and washed several times with physiological saline solution. The said procedure was repeated again to ensure the stable reactivity of vascular smooth muscle to repetitive constriction/relaxation.
Thereafter, 3×10^−6 M methoxamine was applied to induce an intensive constriction in the vascular smooth muscle. When the vasoconstriction induced by the methoxamine was reached and maintained to a maximum, test compounds and control material was cumulatively added to the organ bath in concentration of 1, 3, 10 and 30 μM, respectively, to examine the vasodilating effect. Cromakalim, BMS-180448 (the compound of formula 4) and BMS-191095 (the compound of formula 5), known to be the first generation KATP opener with potent vasodilating effect were used as control materials.
The change rate of constriction by the addition of the drugs compared to the maximal constriction induced by methoxamine was calculated to plot a concentration-relaxation response curve. Through a least linear regression analysis, IC50 that the drug concentration at which the vascular tissue is relaxed to 50% extent of the maximal constriction, was obtained for each drug.

[1] = Acute oral toxicity test in rats; details: SD, rat, in vivo, single oral dose, suspended in 0.5% methyl cellulose, read-out: lethal dose (LD50) for oral administration
Procedure: In this test, six-week old SPF SD rats were used with two rats assigned to each group. Each group was consisted of two rats. The compounds prepared in example 1, 7, 11, 17, 22, 24, 26, 28, 30, 32, 34, 42, 52, 54, 55, 56, 57, 59, 60, 61, 70, 75, 77, 79, 81, 83, 85, and 89 were suspended in 0.5% methyl cellulose, respectively. […] Also, hematological test and biochemical analysis were accomplished. After sacrificing the animals, autopsy was performed for macroscopic observations of the organs and tissues. As a result, there was no significant changes in clinical symptoms, body weight and mortalities. Also in hematology, serum chemistry parameters, macroscopic observation and drug-related changes were not observed.

cortical neuron cells = assay: Protective effect on iron-induced neuronal cell injury (LDH release); format: cell-based; details: FeSO4 50 μM; for protective effect on neuron cell: Inhibition (%, 30 μM compound addition): LDH reduction vs control; for IC50: LDH
Procedure: From the brains of 17˜18 day-old embryos, cortical neuron cells were isolated and then, cultured at 37° C. for 7˜9 days in a 5% CO2 incubator. The said cortical cell cultures were washed twice with MEM (Minimum essential medium) to reduce the serum level to 0.2%. […] Then, the compound of the said concentration was pre-treated for 30 min, respectively. For the experiment, test compound was dissolved in DMSO and diluted in a medium. At this time, the final concentration of DMSO was not allowed to exceed 0.1%. For control group, only vehicle was applied.
After the said pre-treatment, FeSO4 was added to the medium for a final concentration to be 50 μM. The medium was cultured in CO2 incubator for 24 hours. During the incubation, lactate dehydrogenase (LDH) was released by iron. The serum level of lactate dehydrogenase released into the medium was measured to assess necrosis of neuronal cell by the oxidative toxicity of iron. The protective effect on neuron cells of the test compounds was evaluated by calculating the LDH reduction rate of treatment-group compared with that of the control group.

[2] = tested on: isolated ischemic rat heart; assay: Cardioprotective effect in ischemic heart models of rats (Langendorff); details: 10 μM
Procedure: Male rats (300˜450 g, obtained form the experimental animal team of the Korea Research Institute of Chemical Technology) were anaesthetized by the intra-peritoneal injection of sodium pentobarbital at a dose of 100 mg/kg. Heparin (1,000 U/kg) was injected to the tail vein and then the heart was enucleated. Particularly, cannula (PE 240) was inserted to the organ. Rats were mechanically ventilated with a rodent ventilator, in situ aorta cannula was inserted into their aorta. In retorograde perfusion, their hearts were enucleated, then just hung onto Langendorff Apparatus. Tissue attached at the heart was removed. Heart was perfused in oxygenated modified Krebs-Henseleit bicarbonate buffer (composition<mM/L>116 NaCl, 4.7 KCl, 1.1 MgSO4, 1.17 KH2PO4, 24.9 NaHCO3, 2.52 CaCl2, 8.32 Glucose, 2.0 Pyruvate) at a constant perfusion pressure (85 mmHg). A metal cannula attached to latex balloon filled with solvent (ethanol: water=1:1 (v/v)) was placed in the left ventricle through pulmonary vein and connected to a isovolumetric pressure transducer (H.S.E., Germany) for measurement of left ventricular pressure (LVP). The hearts were allowed to equilibrate for 15 min, at which time left ventricular end-diastolic pressure (EDP) was adjusted to 5 mmHg and this balloon volume was maintained throughout the experiment.
Baseline cardiac contractile function, heart rate (HR), and coronary flow (CF) were measured. Cardiac contractile function was calculated by […], yielding LVDP (left ventricular developed pressure). Double product RPP (rate-pressure product) (DP), another important parameter for indirectly assessing cardiac performance in Langendorff heart impossible to measure cardiac output was calculated by multiplying HR by LVDP.
Throughout the experiment, total coronary blood flow was measured by the use of coronary flow probe (diameter: 1.0 mm) installed in aortic cannula with electromagnetic flowmeter. Temperature of heart was steadily maintained by immersing the heart at 37° C. in physiological saline solution to which 95% O2/5% CO2 was constantly supplied. After stabilization for 15 min, the hearts were pre-treated for 10 min in vehicle (0.04% DMSO) or mixture containing the compound of the present invention or control material. Thereafter, cardiac contractile function, HR and CF were repeatedly measured. Global ischemia was induced by completely shutting off the perfusate for 30 min. Severity of ischemia was determined as the time to contracture (TTC, min) during global ischemia in which the first 5 mmHg increase in EDP was observed. Then, the hearts were reperfused and, 30 min later, contractile functions (LVDP, HR and CF) was repeatedly measured. After reperfusion was accomplished for 30 min, LDH (lactate dehydrogenase) was measured as a sensitive index for loss of cell viability with a kit.

Structure (SMILES) | IC50 (isolated rat aorta) [µM] | LD50 [1] [mg/kg] | protective effect on neuron cell: Inhibition (%, 30 μM compound addition) (cortical neuron cells; 24 hours) [%] | IC50 (cortical neuron cells; Cortical neurone, 24 h) [µM] | IC50 (cortical neuron cells; 24 hours) [µM] | EDP (mmHg) ([2]; after 30 min global ischemia and reperfusion) | LDH (u/g) ([2]; reperfusion LDH release) | LVDP X HR (%) ([2]; reperfusion, % of pre-treatment DP) | TTC ([2]; time to contracture during global ischemia) [min]
COC(OC)[C@]1(C)Oc2ccc(N)cc2[C@H](N(Cc2nnn(C)n2)c2ccc(OC(F)(F)F)cc2)[C@H]1O [Example 83, (2R,3R,4S)-6-amino-4-[N-(4-trifluoromethoxyphenyl)-N-(2-methyl-2H-tetrazol-5-ylmethyl)amino]-3-hydroxy-2-methyl-2-dimethoxymethyl-3,4-dihydro-2H-1-benzopyran] | > 30 | > 2000 | 80 | 3.7 |  |  |  |  | 
COC(OC)[C@]1(C)Oc2ccc(N)cc2[C@@H](N(Cc2nnn(C)n2)c2ccc(OC(F)(F)F)cc2)[C@@H]1O [Example 85, (2R,3S,4R)-6-amino-4-[N-(4-trifluoromethoxyphenyl)-N-(2-methyl-2H-tetrazol-5ylmethyl)amino]-3-hydroxy-2-methyl-2-dimethoxymethyl-3,4-dihydro-2H-1-benzopyran] | > 30 | > 2000 | 119 | < 2 | 1.8 |  |  |  | 
COC(OC)[C@@]1(C)Oc2ccc(N)cc2[C@H](N(Cc2nnn(C)n2)c2cccc(Cl)c2)[C@H]1O [Example 26, (2S,3R,4S)-6-amino-4-[N-(3-chlorophenyl)-N-(2-methyl-2H-tetrazol-5-ylmethyl)amino]-3-hydroxy-2-methyl-2-dimethoxymethyl-3,4-dihydro-2H-1-benzopyran] | 24.6 | > 2000 | 97 | 2.2 |  |  |  |  | 
COC(OC)[C@]1(C)Oc2ccc(N)cc2[C@@H](N(Cc2nnn(C)n2)c2ccc(C(F)(F)F)cc2)[C@@H]1O [Example 77, (2R,3S,4R)-6-amino-4-[N-(4-trifluoromethylphenyl)-N-(2-methyl-2H-tetrazol-5-ylmethyl)amino]-3-hydroxy-2-methyl-2-dimethoxymethyl-3,4-dihydro-2H-1-benzopyran] | > 30 | > 2000 | 111 | < 2 | 1.9 |  |  |  | 
COC(OC)[C@@]1(C)Oc2ccc(N)cc2[C@@H](N(Cc2nnn(C)n2)c2cccc(Cl)c2)[C@@H]1O [Example 22, (2S,3S,4R)-6-amino-4-[N-(3-chlorophenyl)-N-(2-methyl-2H-tetrazol-5-ylmethyl)amino]-3-hydroxy-2-methyl-2-dimethoxymethyl-3,4-dihydro-2H-1-benzopyran] | > 30 | > 2000 | 97 | 5.9 |  |  |  |  | 
COC(OC)[C@@]1(C)Oc2ccc(N)cc2[C@H](N(Cc2nnn(C)n2)c2ccc(C(F)(F)F)cc2)[C@H]1O [Example 34, (2S,3R,4S)-6-amino-4-[N-(4-trifluoromethylphenyl)-N-(2-methyl-2H-tetrazol-5-ylmethyl)amino]-3-hydroxy-2-methyl-2-dimethoxymethyl-3,4-dihydro-2H-1-benzopyran] | > 30 | > 2000 | 111 | 1.5 |  |  |  |  | 
COC(OC)[C@@]1(C)Oc2ccc(N)cc2[C@@H](N(Cc2nnn(C)n2)c2ccc(C)cc2)[C@@H]1O [Example 24] | > 30 |  | 98 |  | 6.1 |  |  |  | 
COC(OC)[C@@]1(C)Oc2ccc([N+](=O)[O-])cc2[C@@H](N(Cc2ccccc2)Cc2nnn(C)n2)[C@@H]1O [Example 7, (2S,3S,4R)-6-nitro-4-[N-benzyl-N-(2-methyl-2H-tetrazol-5-ylmethyl)amino]-3-hydroxy-2-methyl-2-dimethoxymethyl-3,4-dihydro-2H-1-benzopyran] | 5.59 | > 2000 | 59 | 34.1 |  |  |  |  | 
COC(OC)[C@@]1(C)Oc2ccc(N)cc2[C@@H](N(Cc2nnn(C)n2)c2ccc(C(F)(F)F)cc2)[C@@H]1O [Example 75, (2S,3S,4R)-6-amino-4-[N-(4-trifluoromethylphenyl)-N-(2-methyl-2H-tetrazol-5-ylmethyl)amino]-3-hydroxy-2-methyl-2-dimethoxymethyl-3,4-dihydro-2H-1-benzopyran] | > 30 | > 2000 | 125 | < 2 | 1.8 |  |  |  | 
COC(OC)[C@@]1(C)Oc2ccc([N+](=O)[O-])cc2[C@H](N(Cc2nnn(C)n2)c2ccc(OC(F)(F)F)cc2)[C@H]1O [Example 31, (2S,3R,4S)-6-nitro-4-[N-(4-trifluoromethoxyphenyl)-N-(2-methyl-2H-tetrazol-5-ylmethyl)amino]-3-hydroxy-2-methyl-2-dimethoxymethyl-3,4-dihydro-2H-1-benzopyran] | > 30 |  | 86 | < 2 | 1.8 |  |  |  | 
COC(OC)[C@@]1(C)Oc2ccc([N+](=O)[O-])cc2[C@@H](N(Cc2nnn(C)n2)c2ccc(Cl)cc2)[C@@H]1O [Example 1, (2S,3S,4R)-6-nitro-4-[N-(4-chlorophenyl)-N-(2-methyl-2H-tetrazol-5-ylmethyl)amino]-3-hydroxy-2-methyl-2-dimethoxymethyl-3,4-dihydro-2H-1-benzopyran] | 7.14 | > 2000 | 71 | 18.1 |  | 29.3 | 15.2 | 46.8 | 24.8
